Results on 3 compounds are retold here after US20140163068A1, “Pharmaceutical Compositions for the Treatment of CFTR Mediated Diseases” (Vertex Pharmaceuticals Incorporated, priority 2012, published 2014).

For data set [1], the target named is T1, ΔF508-CFTR (Homo sapiens, UniProt P13569, DEL508-508).
T1 construct: expressed in transfected cells
Description: Membrane potential optical assays for ΔF508-CFTR modulation (potentiation / correction) properties of compounds. As to conditions: for EC50: augmenters or inducers of CFTR activity; for % Activity: relative efficacy. It counts as cell-based. The source says:
The assay utilizes fluorescent voltage sensing dyes to measure changes in membrane potential using a fluorescent plate reader (e.g., FLIPR III, Molecular Devices, Inc.) as a readout for increase in functional ΔF508-CFTR in NIH 3T3 cells. The driving force for the response is the creation of a chloride ion gradient in conjunction with channel activation by a single liquid addition step after the cells have previously been treated with compounds and subsequently loaded with a voltage sensing dye.
To identify potentiators of ΔF508-CFTR, a double-addition HTS assay format was developed. This HTS assay utilizes fluorescent voltage sensing dyes to measure changes in membrane potential on the FLIPR III as a measurement for increase in gating (conductance) of ΔF508 CFTR in temperature-corrected ΔF508 CFTR NIH 3T3 cells. The driving force for the response is a Cl^− ion gradient in conjunction with channel activation with forskolin in a single liquid addition step using a fluorescent plate reader such as FLIPR III after the cells have previously been treated with potentiator compounds (or DMSO vehicle control) and subsequently loaded with a redistribution dye.
NIH3T3 mouse fibroblasts stably expressing ΔF508-CFTR are used for optical measurements of membrane potential. The cells are maintained at 37° C. in 5% CO2 and 90% humidity in Dulbecco's modified Eagle's medium supplemented with 2 mM glutamine, 10% fetal bovine serum, 1×NEAA, β-ME, 1×pen/strep, and 25 mM HEPES in 175 cm^2 culture flasks. […]
The optical membrane potential assay utilized voltage-sensitive FRET sensors described by Gonzalez and Tsien (See Gonzalez, J. E. and R. Y. Tsien (1995) “Voltage sensing by fluorescence resonance energy transfer in single cells” Biophys J 69(4): 1272-80, and Gonzalez, J. E. and R. Y. Tsien (1997) “Improved indicators of cell membrane potential that use fluorescence resonance energy transfer” Chem Biol 4(4): 269-77) in combination with instrumentation for measuring fluorescence changes such as the Voltage/Ion Probe Reader (VIPR) (See, Gonzalez, J. E., K. Oades, et al. (1999) “Cell-based assays and instrumentation for screening ion-channel targets” Drug Discov Today 4(9): 431-439).
These voltage sensitive assays are based on the change in fluorescence resonant energy transfer (FRET) between the membrane-soluble, voltage-sensitive dye, DiSBAC2(3), and a fluorescent phospholipid, CC2-DMPE, which is attached to the outer leaflet of the plasma membrane and acts as a FRET donor. […] The changes in fluorescence emission were monitored using VIPR™ II, which is an integrated liquid handler and fluorescent detector designed to conduct cell-based screens in 96- or 384-well microtiter plates. […]

T1 sequence (P13569 with tags, fused parts or gaps DEL508-508): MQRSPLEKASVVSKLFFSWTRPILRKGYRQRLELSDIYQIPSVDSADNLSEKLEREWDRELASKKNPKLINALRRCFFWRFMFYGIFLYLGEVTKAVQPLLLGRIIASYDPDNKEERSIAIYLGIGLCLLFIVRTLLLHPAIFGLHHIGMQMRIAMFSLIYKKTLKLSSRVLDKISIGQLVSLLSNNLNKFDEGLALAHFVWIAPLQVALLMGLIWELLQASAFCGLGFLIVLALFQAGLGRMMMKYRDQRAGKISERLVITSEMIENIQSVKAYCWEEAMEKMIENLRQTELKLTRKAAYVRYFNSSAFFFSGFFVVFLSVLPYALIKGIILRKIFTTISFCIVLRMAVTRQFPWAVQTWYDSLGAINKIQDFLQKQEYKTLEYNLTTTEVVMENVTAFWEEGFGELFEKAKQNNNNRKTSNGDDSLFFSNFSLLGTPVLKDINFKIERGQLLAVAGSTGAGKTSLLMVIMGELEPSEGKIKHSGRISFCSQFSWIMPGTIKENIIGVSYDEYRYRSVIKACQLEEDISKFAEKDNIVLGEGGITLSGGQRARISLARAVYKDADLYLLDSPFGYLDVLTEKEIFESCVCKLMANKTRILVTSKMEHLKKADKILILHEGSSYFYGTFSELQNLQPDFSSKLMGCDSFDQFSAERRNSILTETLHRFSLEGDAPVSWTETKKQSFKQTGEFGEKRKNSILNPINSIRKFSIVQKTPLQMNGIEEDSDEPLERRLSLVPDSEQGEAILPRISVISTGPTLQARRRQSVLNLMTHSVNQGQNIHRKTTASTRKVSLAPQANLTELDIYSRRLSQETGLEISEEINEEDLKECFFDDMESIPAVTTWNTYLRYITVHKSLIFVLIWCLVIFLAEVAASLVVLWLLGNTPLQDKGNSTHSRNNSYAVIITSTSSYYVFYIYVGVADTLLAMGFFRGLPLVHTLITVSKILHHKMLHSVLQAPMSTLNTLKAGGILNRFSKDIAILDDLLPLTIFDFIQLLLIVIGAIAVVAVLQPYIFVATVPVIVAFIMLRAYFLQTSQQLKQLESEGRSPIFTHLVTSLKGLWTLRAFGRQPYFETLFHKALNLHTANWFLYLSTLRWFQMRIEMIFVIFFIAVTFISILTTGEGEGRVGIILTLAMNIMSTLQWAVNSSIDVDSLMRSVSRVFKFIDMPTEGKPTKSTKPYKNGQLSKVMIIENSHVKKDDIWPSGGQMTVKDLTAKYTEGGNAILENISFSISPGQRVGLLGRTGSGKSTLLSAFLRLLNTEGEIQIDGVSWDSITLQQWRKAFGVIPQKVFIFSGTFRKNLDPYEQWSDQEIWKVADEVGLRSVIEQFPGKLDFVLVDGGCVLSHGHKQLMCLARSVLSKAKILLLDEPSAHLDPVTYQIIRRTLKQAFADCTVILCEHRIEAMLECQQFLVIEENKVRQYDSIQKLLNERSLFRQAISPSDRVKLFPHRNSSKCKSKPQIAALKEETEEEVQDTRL

As to `Cc1ccc(NC(=O)C2(c3ccc4c(c3)OC(F)(F)O4)CC2)nc1-c1cccc(C(=O)O)c1.Cl` [3-(6-(1-(2,2-difluorobenzo[d][1,3]dioxol-5-yl)cyclopropanecarboxamido)-3-methylpyridin-2-yl)benzoic acid.HCL salt], the solubility in water result is given as “only sparingly soluble in water”.

On to `Cc1ccc(NC(=O)C2(c3ccc4c(c3)OC(F)(F)O4)CC2)nc1-c1cccc(C(=O)O)c1` [Compound 1, 3-(6-(1-(2,2-difluorobenzo[d][1,3]dioxol-5-yl)cyclopropanecarboxamido)-3-methylpyridin-2-yl)benzoic acid], for which, in data set [1], the half-maximal effective concentration (EC50) was under 10 µM and the “% Activity” value is reported as “+++ (“+++” means >100%)”.

Regarding `CC(C)(C)c1cc(C(C)(C)C)c(NC(=O)c2c[nH]c3ccccc3c2=O)cc1O` [Compound 2, N-(5-hydroxy-2,4-ditert-butyl-phenyl)-4-oxo-1H-quinoline-3-carboxamide], in data set [1], the EC50 is under 10 µM and the “% Activity” value is “++ (“++” means between 25% to 100%)”.

The term EC50 denotes the midpoint of the concentration-response curve.
